According to ChEMBL document CHEMBL3588836, “Development of Quinoline-2,4(1H,3H)-diones as Potent and Selective Ligands of the Cannabinoid Type 2 Receptor” (J Med Chem, 2015):

How the values were obtained:
CHO [1] = experiment: Selectivity index, ratio of EC50 for CB1R (unknown origin) CHO cells stably expressing Galpha16 to EC50 for CB2R (unknown origin) CHO cells stably expressing Galpha16; assay type: cell-based; settings: Homo sapiens
Cannabinoid receptor 2 [2] = biological target: T1, Cannabinoid receptor 2 (Homo sapiens, UniProt P34972); experiment: Agonist activity at CB2R (unknown origin) CHO cells stably expressing Galpha16 assessed as increase in intracellular calcium level by microplate reader based assay; assay type: functional, cell-based
T1 sequence (P34972 whole entry): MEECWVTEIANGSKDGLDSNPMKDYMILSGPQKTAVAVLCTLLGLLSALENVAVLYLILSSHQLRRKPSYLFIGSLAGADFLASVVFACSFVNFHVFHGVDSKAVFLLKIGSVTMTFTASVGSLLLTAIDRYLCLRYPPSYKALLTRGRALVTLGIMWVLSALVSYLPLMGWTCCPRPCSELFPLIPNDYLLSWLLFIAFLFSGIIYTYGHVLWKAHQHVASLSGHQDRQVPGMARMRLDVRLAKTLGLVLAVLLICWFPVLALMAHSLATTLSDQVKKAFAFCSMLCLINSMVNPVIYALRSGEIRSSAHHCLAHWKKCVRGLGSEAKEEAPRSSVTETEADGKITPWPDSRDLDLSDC

Cannabinoid receptor 1 [3] = biological target: T2, Cannabinoid receptor 1 (Homo sapiens, UniProt P21554); experiment: Agonist activity at CB1R (unknown origin) CHO cells stably expressing Galpha16 assessed as increase in intracellular calcium level by microplate reader based assay; assay type: functional, cell-based
T2 sequence (P21554 whole entry): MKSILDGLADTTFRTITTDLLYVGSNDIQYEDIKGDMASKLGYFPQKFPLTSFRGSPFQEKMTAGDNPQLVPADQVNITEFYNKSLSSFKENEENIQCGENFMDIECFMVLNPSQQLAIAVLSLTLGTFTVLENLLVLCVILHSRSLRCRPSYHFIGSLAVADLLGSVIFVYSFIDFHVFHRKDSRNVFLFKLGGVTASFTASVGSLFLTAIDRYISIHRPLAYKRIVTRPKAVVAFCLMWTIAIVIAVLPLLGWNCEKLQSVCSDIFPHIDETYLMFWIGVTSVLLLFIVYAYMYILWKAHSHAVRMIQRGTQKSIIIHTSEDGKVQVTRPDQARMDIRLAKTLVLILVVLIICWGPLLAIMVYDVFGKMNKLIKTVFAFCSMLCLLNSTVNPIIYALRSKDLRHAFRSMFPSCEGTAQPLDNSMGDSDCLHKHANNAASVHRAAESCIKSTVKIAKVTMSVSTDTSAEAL

Cannabinoid receptor 2 [4] = biological target: T1, Cannabinoid receptor 2; experiment: Agonist activity at CB2R (unknown origin) CHO cells stably expressing Galpha16 assessed as increase in intracellular calcium level by microplate reader based assay relative to CP55940; assay type: functional, cell-based
Cannabinoid receptor 2 [5] = biological target: T1, Cannabinoid receptor 2; experiment: Antagonist activity against CB2R (unknown origin) CHO cells stably expressing Galpha16 assessed as inhibition of CP55940-induced increase in intracellular calcium level pre-treated 10 mins before CP55940 stimulation by microplate reader based assay relative to […]; assay type: functional, cell-based
CHO [6] = experiment: Selectivity index, ratio of IC50 for CB1R (unknown origin) CHO cells stably expressing Galpha16 to IC50 for CB2R (unknown origin) CHO cells stably expressing Galpha16; assay type: cell-based; settings: Homo sapiens
Cannabinoid receptor 1 [7] = biological target: T2, Cannabinoid receptor 1; assay type: functional, cell-based, CHO
Cannabinoid receptor 2 [8] = biological target: T1, Cannabinoid receptor 2; experiment: Antagonist activity against CB2R (unknown origin) CHO cells stably expressing Galpha16 assessed as inhibition of CP55940-induced increase in intracellular calcium level pre-treated 10 mins before CP55940 stimulation by microplate reader based assay; assay type: functional, cell-based

Structure (SMILES)	Ratio EC50 (CHO [1])	EC50 (Cannabinoid receptor 2 [2]; read-out: EC50) [nM]	EC50 (Cannabinoid receptor 1 [3]) [nM]	Emax (Cannabinoid receptor 2 [4]) [%]	Emax (Cannabinoid receptor 2 [5]) [%]	Ratio IC50 (CHO [6])	IC50 (Cannabinoid receptor 1 [7]) [nM]	IC50 (Cannabinoid receptor 2 [8]) [nM]	EC50 (Cannabinoid receptor 2 [2]; read-out: pEC50 (converted)) [nM]
CCN1C(=O)/C(=C/NC2CCCCC2)C(=O)c2cccc(C)c21	> 0.559	17900	> 10000	95	–	–	–	–	–
CCCCN1C(=O)/C(=C/NC(C)(C)C)C(=O)c2cccc(C)c21	> 500	20	> 10000	135	–	–	–	–	–
CCCCN1C(=O)/C(=C/NC2CC2)C(=O)c2cccc(C)c21	> 19.9	503	> 10000	81.8	–	–	–	–	–
CCCN1C(=O)/C(=C/NC2CCCCC2)C(=O)c2cccc(C)c21	> 20.1	497	> 10000	68.2	–	–	–	–	–
CCCCN1C(=O)/C(=C/N[C@H]2CC[C@H](O)CC2)C(=O)c2cccc(C)c21	–	> 10000	> 10000	–	–	–	–	–	–
CCCCN1C(=O)/C(=C/NC2CCCCC2)C(=O)c2cccc(OC)c21	> 7.04	1420	> 10000	86.1	–	–	–	–	–
CCCCCN1C(=O)/C(=C/NC2CCCCC2)C(=O)c2c(OC)cccc21	–	> 10000	> 10000	–	–	–	–	–	–
CCCCN1C(=O)/C(=C/NC2CCCC2)C(=O)c2cccc(C)c21	> 172	58	> 10000	129	–	–	–	–	–
C=CCCN1C(=O)/C(=C/NC(C)(C)C)C(=O)c2cccc(C)c21	> 133	75.3	> 10000	92.6	–	–	–	–	–
CCCCCN1C(=O)/C(=C/NC2CCCCC2)C(=O)c2cc(Br)ccc21	–	–	–	–	96.8	> 5.95	> 10000	1680	–
CCCCCN1C(=O)/C(=C/NC2CCCCC2)C(=O)c2cc(OC)cc(OC)c21	–	–	–	–	–	–	> 10000	> 10000	–
CCCCN1C(=O)/C(=C/NC(C)(C)CC)C(=O)c2cccc(C)c21	26.8	75.3	2020	158	–	–	–	–	75
CCCCN1C(=O)/C(=C/NC(C)C)C(=O)c2cccc(C)c21	–	> 10000	> 10000	–	–	–	–	–	–
CCCCN1C(=O)/C(=C/NC2CCCCC2)C(=O)c2cccc(Cl)c21	–	> 10000	> 10000	–	–	–	–	–	–
O=C(NCC1CCOCC1)c1cnc(Nc2ccc(Cl)cc2Cl)nc1C(F)(F)F [GW842166X]	> 22.9	437	> 10000	91.6	–	–	–	–	–
CCCCCN1C(=O)/C(=C/NC2CCCCC2)C(=O)c2cc(OC)ccc21	–	–	–	–	98.3	> 6.06	> 10000	1650	–
CCCCN1C(=O)/C(=C/NC(C)CCC)C(=O)c2cccc(C)c21 (stereo not given)	> 86.2	116	> 10000	53.6	–	–	–	–	–
CCCCN1C(=O)/C(=C/NCC2CC2)C(=O)c2cccc(C)c21	> 78.7	127	> 10000	43.4	–	–	–	–	–
CCCCCN1C(=O)/C(=C/NC2CCCCC2)C(=O)c2cccc(CC)c21	–	> 10000	> 10000	–	–	–	–	–	–
CCCCN1C(=O)/C(=C/NCCC)C(=O)c2cccc(C)c21	–	> 10000	> 10000	–	–	–	–	–	–

Structure (SMILES)	Ratio EC50 (CHO [1])	EC50 (Cannabinoid receptor 2 [2]; read-out: EC50) [nM]	EC50 (Cannabinoid receptor 1 [3]) [nM]	Emax (Cannabinoid receptor 2 [4]) [%]	Emax (Cannabinoid receptor 2 [5]) [%]	Ratio IC50 (CHO [6])	IC50 (Cannabinoid receptor 1 [7]) [nM]	IC50 (Cannabinoid receptor 2 [8]) [nM]	EC50 (Cannabinoid receptor 2 [2]; read-out: pEC50 (converted)) [nM]
CCCCN1C(=O)/C(=C/NC(CC)CC)C(=O)c2cccc(C)c21	> 88.5	113	> 10000	137	–	–	–	–	112
CCCCCN1C(=O)/C(=C/NC23CC4CC(CC(C4)C2)C3)C(=O)c2cc(Cl)ccc21	–	–	–	–	100	> 10.4	> 10000	957	–
CCCCN1C(=O)/C(=C/NCc2ccc(F)cc2)C(=O)c2cccc(C)c21	–	> 10000	> 10000	–	–	–	–	–	–
CCCCOc1c(OC)ccc2cc(C(=O)NCCc3ccc(N)cc3)c(=O)[nH]c12	–	–	–	–	102	> 18.3	> 10000	–	–
CCCCN1C(=O)/C(=C/NC2CCCCC2)C(=O)c2cccc(CC)c21	> 12.5	797	> 10000	86.9	–	–	–	–	800
CCCCCN1C(=O)/C(=C/NC23CC4CC(CC(C4)C2)C3)C(=O)c2cc(OC)cc(C)c21	–	–	–	–	102	> 221	> 10000	45.3	–
CCCN1C(=O)/C(=C/NC(C)(C)C)C(=O)c2cccc(C)c21	> 275	36.3	> 10000	126	–	–	–	–	–
CCCCN1C(=O)/C(=C/NN2CCOCC2)C(=O)c2cccc(C)c21	> 21	477	> 10000	78.7	–	–	–	–	–
CCCCCN1C(=O)/C(=C/NC23CC4CC(CC(C4)C2)C3)C(=O)c2cc(OC)ccc21	–	–	–	–	106	> 122	> 10000	81.7	–
CCCCCN1C(=O)/C(=C/NC2CCCCC2)C(=O)c2cc(C)ccc21	–	–	–	–	–	–	> 10000	> 10000	–
CCCCN1C(=O)/C(=C/Nc2ccc(F)cc2)C(=O)c2cccc(C)c21	–	> 10000	> 10000	–	–	–	–	–	–
CCCCCN1C(=O)/C(=C/NC2CCCCC2)C(=O)c2cccc(C)c21	> 31.3	320	> 10000	70.3	–	–	–	–	–
CCCCCN1C(=O)/C(=C/NC2CCCCC2)C(=O)c2ccc(C)cc21	–	–	–	–	96.3	> 1110	> 10000	9.03	–
CCCCN1C(=O)/C(=C/NC(C)(C)CO)C(=O)c2cccc(C)c21	13.5	41.3	557	127	–	–	–	–	41
CCCCCN1C(=O)/C(=C/NC2CCCCC2)C(=O)c2cc(OC)cc(C)c21	–	–	–	–	106	> 107	> 10000	93.3	–
Cc1cccc2c1N(CC1CC1)C(=O)/C(=C/NC1CCCCC1)C2=O	> 14.9	670	> 10000	111	–	–	–	–	–
CCCCN1C(=O)/C(=C/NC(C)C(C)C)C(=O)c2cccc(C)c21 (stereo not given)	> 121	82.7	> 10000	120	–	–	–	–	83
CCCCN1C(=O)/C(=C/NCC2CCC2)C(=O)c2cccc(C)c21	> 45.5	220	> 10000	87.7	–	–	–	–	–
CCCCN1C(=O)/C(=C/NC23CC4CC(CC(C4)C2)C3)C(=O)c2cccc(C)c21	> 31.5	317	> 10000	137	–	–	–	–	–
C=CCCN1C(=O)/C(=C/NC2CCCCC2)C(=O)c2cccc(C)c21	> 13.4	749	> 10000	135	–	–	–	–	–

Structure (SMILES)	Ratio EC50 (CHO [1])	EC50 (Cannabinoid receptor 2 [2]; read-out: EC50) [nM]	EC50 (Cannabinoid receptor 1 [3]) [nM]	Emax (Cannabinoid receptor 2 [4]) [%]	Emax (Cannabinoid receptor 2 [5]) [%]	Ratio IC50 (CHO [6])	IC50 (Cannabinoid receptor 1 [7]) [nM]	IC50 (Cannabinoid receptor 2 [8]) [nM]	EC50 (Cannabinoid receptor 2 [2]; read-out: pEC50 (converted)) [nM]
CCCCN1C(=O)/C(=C/NC2CCCCC2)C(=O)c2ccccc21	> 6.33	1580	> 10000	185	–	–	–	–	–
CCCCCN1C(=O)/C(=C/NC2CCCCC2)C(=O)c2ccc(OC)cc21	–	–	–	–	97.4	> 51.5	> 10000	194	–
CCCCCN1C(=O)/C(=C/NC2CCCCC2)C(=O)c2cc(C(C)(C)C)ccc21	–	–	–	–	–	–	> 10000	> 10000	–
CCCCN1C(=O)/C(=C/NC2CCCCC2)C(=O)c2cc(OC)ccc21	–	–	–	–	99.7	> 2.39	> 10000	4190	–
CCCCCN1C(=O)/C(=C/NC2CCCCC2)C(=O)c2cc(Cl)cc(C)c21	–	–	–	–	95	> 6.76	> 10000	1480	–
CCCCN1C(=O)/C(=C/NCc2cccnc2)C(=O)c2cccc(C)c21	–	> 10000	> 10000	–	–	–	–	–	–
CCCCN/C=C1\C(=O)c2cccc(C)c2N(CCCC)C1=O	> 110	90.7	> 10000	64.7	–	–	–	–	91
Cc1c(C(=O)NN2CCCCC2)nn(-c2ccc(Cl)cc2Cl)c1-c1ccc(Cl)cc1	–	–	–	–	100	–	–	–	–
CCCCCN1C(=O)/C(=C/NC2CCCCC2)C(=O)c2ccccc21	> 21.2	472	> 10000	101	–	–	–	–	–
CCCCCN1C(=O)/C(=C/NC2CCCCC2)C(=O)c2cc(OC(F)(F)F)ccc21	–	–	–	–	–	–	> 10000	> 10000	–
CCCCCN1C(=O)/C(=C/NC2CCCCC2)C(=O)c2ccc(Cl)cc21	–	–	–	–	–	–	> 10000	> 10000	–
CCCCN1C(=O)/C(=C/Nc2ccccn2)C(=O)c2cccc(C)c21	> 4.18	2390	> 10000	47.2	–	–	–	–	–
CCCCN1C(=O)/C(=C/NN2CCCCC2)C(=O)c2cccc(C)c21	> 10.1	993	> 10000	58	–	–	–	–	–
CCCCN1C(=O)/C(=C/NC2CCCCC2)C(=O)c2c(C)cccc21	> 29.3	341	> 10000	104	–	–	–	–	–
Cc1cccc2c1N(CC1CC1)C(=O)/C(=C/NC(C)(C)C)C2=O	> 96.2	104	> 10000	140	–	–	–	–	–
CCCCCN1C(=O)/C(=C/NC2CCCCC2)C(=O)c2cccc(OC)c21	–	> 10000	> 10000	–	–	–	–	–	–
CCCCN1C(=O)/C(=C/NCC(C)C)C(=O)c2cccc(C)c21	> 226	44.3	> 10000	99	–	–	–	–	44
CCCCCCN1C(=O)/C(=C/NC2CCCCC2)C(=O)c2cc(OC)ccc21	–	–	–	–	–	–	> 10000	> 10000	–
CCCCCN1C(=O)/C(=C/NC2CCCCC2)C(=O)c2cc(C(F)(F)F)ccc21	–	–	–	–	–	–	> 10000	> 10000	–
